Values of other authors as cited in patent US20150217002A1, “NEAR-INFRARED SPECTROSCOPY AND OPTICAL REPORTER” (THE RESEARCH FOUNDATION FOR THE STATE UNIVERSITY OF NEW YORK, priority 2012, published 2015).

How the values were obtained:
[1] = removed from the circulation system by the liver
[2] = in blood excited with 800 nm light, 0.08 mg/L

- in vivo half-life [1]: about 3 minutes
- quantum yield [2]: about 0.013
SMILES: CC1(C)C(/C=C/C=C/C=C/C=C2\N(CCCCS(=O)(=O)O)c3ccc4ccccc4c3C2(C)C)=[N+](CCCCS(=O)(=O)[O-])c2ccc3ccccc3c21 [ICG, indocyanine green]
